# Data reported in patent US8741905B2, “Compounds and methods for treating autoimmune diseases” (The Broad Institute, Inc., priority 2010, dated 2014).
# Experiments:
# Usp9x = biological target: T1, Usp9x (Homo sapiens, UniProt Q93008); test: Usp9x thermal shift assay; type: binding; conditions: FIG. 14, purified Usp9x, compared with WP1130
# T1 construct: made in house
# Method: For each purification, fifty 25-cm dishes of confluent HEK-293 cell lines stably expressing wild-type USP-9X (provided by Dr. Dario Alessi, University of Dundee, Scotland) were employed. Cells were washed twice with ice-cold PBS and lysed in 1 ml of ice-cold lysis buffer. The combined lysates were centrifuged at 26000 g for 30 min at 4° C. and the supernatant incubated with 0.2 ml of rabbit IgG-agarose beads (Sigma) for 1 h at 4° C. The IgG-agarose was washed extensively with lysis buffer containing 0.15 M NaCl, then with several washes in buffer B prior to incubation with 0.250 ml of buffer B containing 0.1 mg of TEV protease (Invitrogen). After 3 h at 4° C.˜70-90% of the TAP-tagged protein had been cleaved from the IgG-agarose and the eluted protein was incubated with 0.1 ml of rabbit calmodulin-Sepharose (Roche) equilibrated in buffer C. After 1 h at 4° C., the calmodulin-Sepharose was washed with buffer C. To elute the protein, the calmodulin-Sepharose was then incubated with 0.1 ml of buffer D for 10 min at 4° C. The eluate was removed from the beads and the elution repeated two or three times. To remove the NaCl present in the buffer containing the eluate protein, the eluates were centrifuged at 1500 g for 1 min at 4° C. in protein desalting spin columns. […]
# STAT1 = STAT1 phosphorylation; type: cell-based; conditions: FIG. 8
# Method: siRNAs (100 nM) were transfected into INS-1E cells (5,000 cells/well in a 384-well plate) using DharmaFECT reagent. Transfected cells were cultured for 72 hr, then collected for Western blot analysis and cell-based assays. For Western blotting, cells were lysed in RIPA buffer. Total protein was separated by 4-12% SDS-PAGE and transferred to a PVDF membrane. Blots were developed using the chemiluminescence detection system SuperSignal (Thermo Fisher Scientific) and light emission was captured using an Imaging Station 4000MM (Carestream).
# T1 sequence (Q93008 whole entry): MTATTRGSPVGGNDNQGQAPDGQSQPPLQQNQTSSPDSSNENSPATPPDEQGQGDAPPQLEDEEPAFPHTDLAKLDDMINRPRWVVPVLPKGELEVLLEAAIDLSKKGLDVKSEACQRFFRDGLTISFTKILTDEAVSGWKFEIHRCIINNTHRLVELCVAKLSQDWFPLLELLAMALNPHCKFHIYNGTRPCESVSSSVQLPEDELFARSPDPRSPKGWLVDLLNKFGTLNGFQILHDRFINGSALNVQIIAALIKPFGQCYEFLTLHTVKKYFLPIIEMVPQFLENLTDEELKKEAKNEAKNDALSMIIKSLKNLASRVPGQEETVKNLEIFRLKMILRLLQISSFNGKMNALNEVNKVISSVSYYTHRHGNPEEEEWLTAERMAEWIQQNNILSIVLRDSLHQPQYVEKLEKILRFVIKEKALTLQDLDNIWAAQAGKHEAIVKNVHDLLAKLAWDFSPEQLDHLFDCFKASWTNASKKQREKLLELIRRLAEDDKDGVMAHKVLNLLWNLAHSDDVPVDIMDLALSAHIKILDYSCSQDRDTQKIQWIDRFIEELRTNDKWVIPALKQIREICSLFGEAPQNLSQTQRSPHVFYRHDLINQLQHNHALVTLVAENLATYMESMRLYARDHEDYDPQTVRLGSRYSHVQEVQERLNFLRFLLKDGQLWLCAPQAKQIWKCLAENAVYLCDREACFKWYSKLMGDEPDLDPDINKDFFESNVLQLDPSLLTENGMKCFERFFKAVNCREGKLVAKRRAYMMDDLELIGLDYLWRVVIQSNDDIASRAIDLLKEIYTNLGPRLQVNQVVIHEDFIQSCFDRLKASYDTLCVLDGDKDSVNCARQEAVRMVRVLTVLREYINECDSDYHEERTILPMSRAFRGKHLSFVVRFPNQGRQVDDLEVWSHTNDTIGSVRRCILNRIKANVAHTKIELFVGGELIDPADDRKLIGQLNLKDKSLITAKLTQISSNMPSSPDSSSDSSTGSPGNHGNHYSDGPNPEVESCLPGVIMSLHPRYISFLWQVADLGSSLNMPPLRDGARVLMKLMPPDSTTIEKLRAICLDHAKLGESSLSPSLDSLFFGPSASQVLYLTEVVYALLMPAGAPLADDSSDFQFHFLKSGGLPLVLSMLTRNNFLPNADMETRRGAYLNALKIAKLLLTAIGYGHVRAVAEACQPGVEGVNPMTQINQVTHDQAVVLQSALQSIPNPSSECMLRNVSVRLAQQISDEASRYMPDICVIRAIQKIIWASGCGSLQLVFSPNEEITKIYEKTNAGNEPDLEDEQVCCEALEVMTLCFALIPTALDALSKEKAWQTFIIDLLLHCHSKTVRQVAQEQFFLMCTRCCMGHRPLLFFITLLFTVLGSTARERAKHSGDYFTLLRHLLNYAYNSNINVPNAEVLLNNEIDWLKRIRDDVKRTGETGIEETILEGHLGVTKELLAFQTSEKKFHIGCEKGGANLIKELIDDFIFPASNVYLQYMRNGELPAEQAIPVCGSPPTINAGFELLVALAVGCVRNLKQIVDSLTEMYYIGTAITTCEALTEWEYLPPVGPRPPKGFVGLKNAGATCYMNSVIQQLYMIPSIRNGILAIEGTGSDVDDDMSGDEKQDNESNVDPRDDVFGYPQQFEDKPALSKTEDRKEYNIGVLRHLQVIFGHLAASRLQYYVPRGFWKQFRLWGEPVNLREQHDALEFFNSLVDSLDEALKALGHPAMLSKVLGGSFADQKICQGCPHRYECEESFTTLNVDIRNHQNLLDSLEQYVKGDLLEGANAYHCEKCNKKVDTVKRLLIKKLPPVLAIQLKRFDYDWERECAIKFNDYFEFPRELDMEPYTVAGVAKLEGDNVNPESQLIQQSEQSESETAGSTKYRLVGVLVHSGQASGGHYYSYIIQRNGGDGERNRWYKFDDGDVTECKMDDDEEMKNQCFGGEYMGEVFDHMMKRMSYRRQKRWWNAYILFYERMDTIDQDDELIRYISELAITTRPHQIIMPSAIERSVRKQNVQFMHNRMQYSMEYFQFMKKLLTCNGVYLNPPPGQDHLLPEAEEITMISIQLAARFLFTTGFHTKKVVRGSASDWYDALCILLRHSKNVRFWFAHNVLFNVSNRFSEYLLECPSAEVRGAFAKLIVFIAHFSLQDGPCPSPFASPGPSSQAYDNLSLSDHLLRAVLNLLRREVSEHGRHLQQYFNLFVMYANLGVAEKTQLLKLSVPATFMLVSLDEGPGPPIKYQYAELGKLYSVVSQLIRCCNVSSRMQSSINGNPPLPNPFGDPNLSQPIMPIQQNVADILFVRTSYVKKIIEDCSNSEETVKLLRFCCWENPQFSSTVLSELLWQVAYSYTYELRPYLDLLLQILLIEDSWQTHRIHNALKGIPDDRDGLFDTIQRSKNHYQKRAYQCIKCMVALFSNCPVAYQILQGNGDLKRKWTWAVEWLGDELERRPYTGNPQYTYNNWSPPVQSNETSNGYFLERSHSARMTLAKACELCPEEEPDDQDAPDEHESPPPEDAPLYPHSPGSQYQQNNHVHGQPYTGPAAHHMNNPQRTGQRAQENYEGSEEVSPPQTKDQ
smiles,measurement,setting,value
"C[C@@H]1CN([C@@H](C)CO)C(=O)c2cccc(NC(=O)Nc3cccc4ccccc34)c2O[C@H]1CN(C)S(=O)(=O)c1ccc2c(c1)OCCO2 [Compound 21A, N-(((2R,3R)-5-((S)-1-Hydroxypropan-2-yl)-3-methyl-10-(3-(naphthalen-1-yl)ureido)-6-oxo-3,4,5,6-tetrahydro-2H-benzo[b][1,5]oxazocin-2-yl)methyl)-N-methyl-2,3-dihydrobenzo-[b][1,4]dioxine-6-sulfonamide]",Usp9x thermal shift,Usp9x,suggests binding
same,STAT1 phosphorylation,STAT1,Suppression of STAT1 phosphorylation
